Measured values published in patent publication US20250302832A1, “PYRAZINE DERIVATIVES AND USES THEREOF” (FOGHORN THERAPEUTICS INC., priority 2022, published 2025).

How the values were obtained:
[1] = target: T1, HiBit-BRG1 fusion protein (Homo sapiens, UniProt P51532); test: HiBiT-BRG1 cell-based degradation assay (Nano-Glo HiBiT lytic detection, 24 h); settings: HeLa cell line expressing HiBit-BRG1 and LgBit; for Dmax: read-out: BRG1 HiBit Degradation Maximum (%); for DC50: read-out: BRMG1 HiBit Degradation IC50
T1 construct: expressed in transfected cells
T1 sequence (P51532 whole entry, the tested form may be a part): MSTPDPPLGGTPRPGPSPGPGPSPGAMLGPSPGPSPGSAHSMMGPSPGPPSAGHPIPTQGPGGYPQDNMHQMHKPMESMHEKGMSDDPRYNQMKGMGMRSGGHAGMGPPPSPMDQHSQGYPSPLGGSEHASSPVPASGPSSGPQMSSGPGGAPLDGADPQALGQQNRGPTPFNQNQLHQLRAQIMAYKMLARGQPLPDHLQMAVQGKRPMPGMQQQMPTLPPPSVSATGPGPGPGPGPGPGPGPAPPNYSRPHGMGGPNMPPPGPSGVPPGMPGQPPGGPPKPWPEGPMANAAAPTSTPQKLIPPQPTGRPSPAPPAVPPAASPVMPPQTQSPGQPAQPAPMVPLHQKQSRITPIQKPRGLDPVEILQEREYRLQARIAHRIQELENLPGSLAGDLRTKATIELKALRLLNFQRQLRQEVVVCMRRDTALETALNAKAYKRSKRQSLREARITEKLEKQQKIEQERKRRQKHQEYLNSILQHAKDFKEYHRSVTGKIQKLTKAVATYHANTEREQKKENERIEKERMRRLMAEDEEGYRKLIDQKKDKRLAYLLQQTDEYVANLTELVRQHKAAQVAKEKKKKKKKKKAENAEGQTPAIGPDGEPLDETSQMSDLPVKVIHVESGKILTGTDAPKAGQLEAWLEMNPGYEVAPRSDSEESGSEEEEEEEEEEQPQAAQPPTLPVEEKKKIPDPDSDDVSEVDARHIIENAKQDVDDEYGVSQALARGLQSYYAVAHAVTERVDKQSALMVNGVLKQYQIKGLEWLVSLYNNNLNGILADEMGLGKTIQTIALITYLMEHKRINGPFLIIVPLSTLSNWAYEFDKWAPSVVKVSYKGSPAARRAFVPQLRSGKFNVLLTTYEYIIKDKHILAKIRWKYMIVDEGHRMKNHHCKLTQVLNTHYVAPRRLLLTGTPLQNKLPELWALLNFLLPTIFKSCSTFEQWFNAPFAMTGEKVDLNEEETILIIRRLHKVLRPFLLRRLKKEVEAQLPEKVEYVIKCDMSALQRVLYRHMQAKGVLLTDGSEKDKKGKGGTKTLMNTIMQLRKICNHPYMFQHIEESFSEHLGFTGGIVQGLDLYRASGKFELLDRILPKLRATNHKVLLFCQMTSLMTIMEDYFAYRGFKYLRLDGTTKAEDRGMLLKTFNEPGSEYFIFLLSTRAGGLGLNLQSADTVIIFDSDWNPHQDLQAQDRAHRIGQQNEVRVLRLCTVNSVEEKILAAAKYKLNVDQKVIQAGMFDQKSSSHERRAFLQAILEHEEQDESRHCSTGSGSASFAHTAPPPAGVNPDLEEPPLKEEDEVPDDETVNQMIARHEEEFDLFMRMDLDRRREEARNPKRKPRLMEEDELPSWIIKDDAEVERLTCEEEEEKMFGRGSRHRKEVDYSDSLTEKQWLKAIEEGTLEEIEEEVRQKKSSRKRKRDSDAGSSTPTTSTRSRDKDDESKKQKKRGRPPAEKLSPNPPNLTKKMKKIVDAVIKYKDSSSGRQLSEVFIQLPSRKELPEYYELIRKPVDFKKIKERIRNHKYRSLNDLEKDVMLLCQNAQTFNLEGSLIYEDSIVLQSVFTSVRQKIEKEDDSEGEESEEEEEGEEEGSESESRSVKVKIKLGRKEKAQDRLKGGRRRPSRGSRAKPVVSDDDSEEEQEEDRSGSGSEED
Protocol: Procedure: A stable HeLa cell line expressing HiBiT-BRM was generated. On day 0, 5000 cells were seeded in 40 μL of media into each well of 384-well cell culture plates. […] Subsequently plates were incubated for 24 h in a standard tissue culture incubator and equilibrated at room temperature for 15 minutes. Nano-GB HiBiT Lytic Detection System (Promega N3050) reagent was freshly prepared and 20 ul was added to each well. Upon addition of this LgBit-containing reagent, the HiBiT and LgBiT proteins associate to form the luminescent NanoBiT luciferase. The plates were shaken for 10 minutes at room temperature and the bioluminescence read using an EnVision plate reader (PerkinElmer).
For measurement of BRG1 degradation, a stable HeLa cell line expressing HiBit-BRG1 and LgBit was generated. The same protocol as above was then followed.
(§1) The degradation % was calculated using the following formula: % degradation=100%−100%×(Lumsample−LuMLC)/(LuMHC−LuMLC). DMSO treated cells are employed as High Control (HC) and 2 μM of a known BRM/BRG1 degrader standard treated cells are employed as Low Control (LC).

HiBit-BRM fusion protein = target: T2, HiBit-BRM fusion protein (Homo sapiens, UniProt P51531); test: HiBiT-BRM cell-based degradation assay (Nano-Glo HiBiT lytic detection, 24 h); settings: HeLa cell line expressing HiBiT-BRM; for DC50: read-out: BRM HiBit Degradation IC50
T2 construct: expressed in transfected cells
T2 sequence (P51531 whole entry, the tested form may be a part): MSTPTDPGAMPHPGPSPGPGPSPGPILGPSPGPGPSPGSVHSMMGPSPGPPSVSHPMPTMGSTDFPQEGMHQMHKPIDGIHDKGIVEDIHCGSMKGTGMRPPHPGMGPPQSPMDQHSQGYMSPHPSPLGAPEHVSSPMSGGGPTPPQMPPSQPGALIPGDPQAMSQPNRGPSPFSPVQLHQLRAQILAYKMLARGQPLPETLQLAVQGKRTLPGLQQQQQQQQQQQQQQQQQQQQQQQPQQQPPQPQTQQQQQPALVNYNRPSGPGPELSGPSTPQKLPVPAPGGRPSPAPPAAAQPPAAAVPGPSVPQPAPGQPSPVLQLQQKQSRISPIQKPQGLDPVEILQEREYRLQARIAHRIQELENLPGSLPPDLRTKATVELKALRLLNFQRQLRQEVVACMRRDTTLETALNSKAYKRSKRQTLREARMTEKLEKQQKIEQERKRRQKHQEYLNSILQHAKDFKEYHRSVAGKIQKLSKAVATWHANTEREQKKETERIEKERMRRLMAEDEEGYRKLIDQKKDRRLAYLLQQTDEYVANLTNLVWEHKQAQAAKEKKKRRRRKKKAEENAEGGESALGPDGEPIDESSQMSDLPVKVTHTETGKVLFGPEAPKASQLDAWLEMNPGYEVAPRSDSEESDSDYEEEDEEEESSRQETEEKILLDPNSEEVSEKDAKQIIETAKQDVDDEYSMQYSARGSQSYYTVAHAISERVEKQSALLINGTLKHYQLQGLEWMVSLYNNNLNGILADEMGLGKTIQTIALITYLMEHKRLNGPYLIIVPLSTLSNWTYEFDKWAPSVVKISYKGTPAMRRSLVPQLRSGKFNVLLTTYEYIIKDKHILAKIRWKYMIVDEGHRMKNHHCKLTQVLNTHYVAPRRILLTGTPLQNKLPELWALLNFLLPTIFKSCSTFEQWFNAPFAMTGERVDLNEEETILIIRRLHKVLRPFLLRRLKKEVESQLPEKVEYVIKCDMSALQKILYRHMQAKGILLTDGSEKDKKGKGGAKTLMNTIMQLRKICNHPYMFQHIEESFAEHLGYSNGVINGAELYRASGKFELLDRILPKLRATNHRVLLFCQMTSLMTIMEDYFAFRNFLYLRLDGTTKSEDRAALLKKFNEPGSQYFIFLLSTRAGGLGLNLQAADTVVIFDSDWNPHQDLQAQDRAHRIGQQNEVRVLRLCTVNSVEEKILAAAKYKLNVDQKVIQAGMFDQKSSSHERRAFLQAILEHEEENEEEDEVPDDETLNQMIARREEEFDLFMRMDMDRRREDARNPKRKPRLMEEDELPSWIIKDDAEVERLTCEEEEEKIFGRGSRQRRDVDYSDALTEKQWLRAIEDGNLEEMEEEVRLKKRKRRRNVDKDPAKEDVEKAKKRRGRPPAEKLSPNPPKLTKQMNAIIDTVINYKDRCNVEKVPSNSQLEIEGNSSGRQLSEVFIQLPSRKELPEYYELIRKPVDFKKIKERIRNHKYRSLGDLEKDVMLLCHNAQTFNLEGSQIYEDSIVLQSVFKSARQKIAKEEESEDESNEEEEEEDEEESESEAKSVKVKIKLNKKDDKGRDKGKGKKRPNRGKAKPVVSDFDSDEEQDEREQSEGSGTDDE
Protocol: Procedure: A stable HeLa cell line expressing HiBiT-BRM was generated. On day 0, 5000 cells were seeded in 40 μL of media into each well of 384-well cell culture plates. On day 1, cells were treated with 120 nL DMSO or 120 nL of 3-fold serially DMSO-diluted compounds (10 points in duplicate with 30 μM as final top dose). Subsequently plates were incubated for 24 h in a standard tissue culture incubator and equilibrated at room temperature for 15 minutes. Nano-GB HiBiT Lytic Detection System (Promega N3050) reagent was freshly prepared and 20 ul was added to each well. Upon addition of this LgBit-containing reagent, the HiBiT and LgBiT proteins associate to form the luminescent NanoBiT luciferase. The plates were shaken for 10 minutes at room temperature and the bioluminescence read using an EnVision plate reader (PerkinElmer).
as §1

| Dmax [1] [%] | DC50 [1] [nM] | DC50 (HiBit-BRM fusion protein) [nM] | SMILES | BRM HiBit Degradation Maximum (%) (HiBit-BRM fusion protein) |
| --- | --- | --- | --- | --- |
| > 50 | > 10 | < 10 | Cc1ncsc1-c1ccc([C@H](C)NC(=O)[C@@H]2C[C@@H](O)CN2C(=O)[C@@H](c2cc(N3CC4(CC(c5cc6nnc(-c7ccccc7O)cc6n5C5(C)CC5)C4)C3)no2)C(C)C)cc1 [Compound 66, (2S,4R)-4-hydroxy-1-((R)-2-(3-(6-(3-(2-hydroxyphenyl)-5-(1-methylcyclopropyl)-5H-pyrrolo[3,2-c]pyridazin-6-yl)-2-azaspiro[3.3]heptan-2-yl)isoxazol-5-yl)-3-methylbutanoyl)-N-((S)-1-(4-(4-methylthiazol-5-yl)phenyl)ethyl)pyrrolidine-2-carboxamide] | A (“A” indicates maximum degradation ≥75%) |
| < 50 |  | > 100 | Cc1ncsc1-c1ccc([C@H](C)NC(=O)[C@@H]2C[C@@H](O)CN2C(=O)[C@@H](c2cc(OCC(=O)N3CC(c4cc5nnc(-c6ccccc6O)cc5n4C)C3)no2)C(C)C)cc1 [Compound 15, (2S,4R)-4-hydroxy-1-((R)-2-(3-(2-(3-(3-(2-hydroxyphenyl)-5-methyl-5H-pyrrolo[3,2-c]pyridazin-6-yl)azetidin-1-yl)-2-oxoethoxy)isoxazol-5-yl)-3-methylbutanoyl)-N-((S)-1-(4-(4-methylthiazol-5-yl)phenyl)ethyl)pyrrolidine-2-carboxamide] | A (“A” indicates maximum degradation ≥75%) |
| > 75 | < 10 | < 10 | Cc1ncsc1-c1ccc([C@H](C)NC(=O)[C@@H]2C[C@@H](O)CN2C(=O)[C@@H](c2cc(OCCN3CCC(c4cc5nnc(-c6ccccc6O)cc5n4C)CC3)no2)C(C)C)cc1 [Compound 20, (2S,4R)-4-hydroxy-1-[(2R)-2-[3-(2-{4-[3-(2-hydroxyphenyl)-5-methylpyrrolo[3,2-c]pyridazin-6-yl]piperidin-1-yl}ethoxy)-1,2-oxazol-5-yl]-3-methylbutanoyl]-N-[(1S)-1-[4-(4-methyl-1,3-thiazol-5-yl)phenyl]ethyl]pyrrolidine-2-carboxamide] | A (“A” indicates maximum degradation ≥75%) |

More lines, now with the values behind:

| SMILES | Dmax [1] [%] | DC50 [1] [nM] | DC50 (HiBit-BRM fusion protein) [nM] | BRM HiBit Degradation Maximum (%) (HiBit-BRM fusion protein) |
| --- | --- | --- | --- | --- |
| Cc1ncsc1-c1ccc([C@H](C)NC(=O)[C@@H]2C[C@@H](O)CN2C(=O)[C@H](C(C)C)n2cc(-c3cnc(N4CC[C@@H](c5cc6nnc(-c7ccccc7O)cc6n5C5CC5)C4)nc3)nn2)cc1 [Compound 71, (2S,4R)-1-((S)-2-(4-(2-((R)-3-(5-cyclopropyl-3-(2-hydroxyphenyl)-5H-pyrrolo[3,2-c]pyridazin-6-yl)pyrrolidin-1-yl)pyrimidin-5-yl)-1H-1,2,3-triazol-1-yl)-3-methylbutanoyl)-4-hydroxy-N-((S)-1-(4-(4-methylthiazol-5-yl)phenyl)ethyl)pyrrolidine-2-carboxamide] | > 75 | < 10 | < 10 | A (“A” indicates maximum degradation ≥75%) |
| Cc1ncsc1-c1ccc([C@H](C)NC(=O)[C@@H]2C[C@@H](O)CN2C(=O)[C@H](c2cc(-c3ccnc(N4CC[C@H](c5cc6nnc(-c7ccccc7O)cc6n5C5CC5)C4)n3)no2)C(C)C)cc1 [Compound 40] | < 50 |  |  | C (“C” indicates maximum degradation <50%) |
| Cc1ncsc1-c1ccc([C@H](C)NC(=O)[C@@H]2C[C@@H](O)CN2C(=O)[C@@H](c2cc(-c3cnc(N4CCN(c5cc6nnc(-c7ccccc7O)cc6n5C)CC4)nc3)no2)C(C)C)cc1 [Compound 28, (2S,4R)-4-hydroxy-1-[(2R)-2-[3-(2-{4-[3-(2-hydroxyphenyl)-5-methylpyrrolo[3,2-c]pyridazin-6-yl]piperazin-1-yl}pyrimidin-5-yl)-1,2-oxazol-5-yl]-3-methylbutanoyl]-N-[(1S)-1-[4-(4-methyl-1,3-thiazol-5-yl)phenyl]ethyl]pyrrolidine-2-carboxamide] | > 75 | < 10 | < 10 | A (“A” indicates maximum degradation ≥75%) |
